Test system: 991263-137-R1-J2-PDC complex spheroid viability
Assay: Anticancer human tumor 991263-137-R1-J2-PDC patient-derived colon adenocarcinoma cell line growth inhibition [POLQ]
Conditions: for IC50: curve of first compound; for viability, T/C: stronger effect = lower value
Summary of the method: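 PDC + HUVEC + MSC complex spheroids; POLQ inhibitors ± partner drugs; top conc. at/near clinical Cmax, else 10 microM (SN-38 1 microM), half-log dilutions; 37 degrees C, 5% CO2.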

[1] = second compound 0.0316 µM, first compound 0.0316 µM
[2] = second compound 0.0316 µM, first compound 0.1 µM
[3] = second compound 0.0316 µM, first compound 0.316 µM
[4] = second compound 0.0316 µM, first compound 1 µM
[5] = second compound 0.0316 µM, first compound 3.16 µM
[6] = second compound 0.0316 µM, first compound 10 µM
[7] = second compound 0.1 µM, first compound 0.0316 µM
[8] = second compound 0.1 µM, first compound 0.1 µM
[9] = second compound 0.1 µM, first compound 0.316 µM
[10] = second compound 0.1 µM, first compound 1 µM
[11] = second compound 0.1 µM, first compound 3.16 µM
[12] = second compound 0.1 µM, first compound 10 µM
[13] = second compound 0.316 µM, first compound 0.0316 µM
[14] = second compound 0.316 µM, first compound 0.1 µM
[15] = second compound 0.316 µM, first compound 0.316 µM
[16] = second compound 0.316 µM, first compound 1 µM
[17] = second compound 0.316 µM, first compound 3.16 µM
[18] = second compound 0.316 µM, first compound 10 µM
[19] = second compound 1 µM, first compound 0.0316 µM
[20] = second compound 1 µM, first compound 0.1 µM
[21] = second compound 1 µM, first compound 0.316 µM
[22] = second compound 1 µM, first compound 1 µM
[23] = second compound 1 µM, first compound 3.16 µM
[24] = second compound 1 µM, first compound 10 µM
[25] = second compound 3.16 µM, first compound 0.0316 µM
[26] = second compound 3.16 µM, first compound 0.1 µM
[27] = second compound 3.16 µM, first compound 0.316 µM
[28] = second compound 3.16 µM, first compound 1 µM
[29] = second compound 3.16 µM, first compound 3.16 µM
[30] = second compound 3.16 µM, first compound 10 µM
[31] = second compound 10 µM, first compound 0.0316 µM
[32] = second compound 10 µM, first compound 0.1 µM
[33] = second compound 10 µM, first compound 0.316 µM
[34] = second compound 10 µM, first compound 1 µM
[35] = second compound 10 µM, first compound 3.16 µM
[36] = second compound 10 µM, first compound 10 µM
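Note: spheroids exposed to compounds for 7 days before readout.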
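Throughout, for viability, T/C: 100% = DMSO vehicle control viability.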

CC(C)n1c(=O)n(C)c2cnc3cc(F)c(-c4ccc(OCCCN5CCCCC5)nc4)cc3c21 + Nc1ccc(C#CCN(C(=O)Cc2ncc(C(F)(F)F)cc2C(F)(F)F)c2ccc(F)cc2)nn1
IC50 (second compound 0.0316 µM): > 10 µM | IC50 (second compound 0.1 µM): > 10 µM | IC50 (second compound 0.316 µM): > 10 µM | IC50 (second compound 1 µM): > 10 µM | IC50 (second compound 3.16 µM): > 10 µM | IC50 (second compound 10 µM): > 10 µM | viability, T/C [1]: 96.6% | viability, T/C [2]: 109% | viability, T/C [3]: 111% | viability, T/C [4]: 121% | viability, T/C [5]: 98.8% | viability, T/C [6]: 111% | viability, T/C [7]: 103% | viability, T/C [8]: 99.8% | viability, T/C [9]: 102% | viability, T/C [10]: 121% | viability, T/C [11]: 101% | viability, T/C [12]: 85.8% | viability, T/C [13]: 104% | viability, T/C [14]: 99.4% | viability, T/C [15]: 101% | viability, T/C [16]: 110% | viability, T/C [17]: 103% | viability, T/C [18]: 111% | viability, T/C [19]: 105% | viability, T/C [20]: 100% | viability, T/C [21]: 105% | viability, T/C [22]: 104% | viability, T/C [23]: 95.5% | viability, T/C [24]: 90.1% | viability, T/C [25]: 90.7% | viability, T/C [26]: 97.7% | viability, T/C [27]: 106% | viability, T/C [28]: 118% | viability, T/C [29]: 111% | viability, T/C [30]: 105% | viability, T/C [31]: 99% | viability, T/C [32]: 96.2% | viability, T/C [33]: 112% | viability, T/C [34]: 94.5% | viability, T/C [35]: 93.5% | viability, T/C [36]: 101%

CC1COCCN1c1cc(-c2ccnn2C)c2ccnc(-c3ccn[nH]3)c2n1 (stereo unspecified) + Nc1ccc(C#CCN(C(=O)Cc2ncc(C(F)(F)F)cc2C(F)(F)F)c2ccc(F)cc2)nn1
IC50 (second compound 0.0316 µM): 1.14 µM | IC50 (second compound 0.1 µM): 1.61 µM | IC50 (second compound 0.316 µM): 1.15 µM | IC50 (second compound 1 µM): 1.4 µM | IC50 (second compound 3.16 µM): 1.11 µM | IC50 (second compound 10 µM): 0.918 µM | viability, T/C [1]: 105% | viability, T/C [2]: 93.8% | viability, T/C [3]: 75.6% | viability, T/C [4]: 50.6% | viability, T/C [5]: 38.6% | viability, T/C [6]: 32.5% | viability, T/C [7]: 105% | viability, T/C [8]: 88.7% | viability, T/C [9]: 69.5% | viability, T/C [10]: 58.4% | viability, T/C [11]: 39.9% | viability, T/C [12]: 32.5% | viability, T/C [13]: 99.4% | viability, T/C [14]: 107% | viability, T/C [15]: 74.4% | viability, T/C [16]: 53.7% | viability, T/C [17]: 40.6% | viability, T/C [18]: 32% | viability, T/C [19]: 108% | viability, T/C [20]: 94% | viability, T/C [21]: 75.5% | viability, T/C [22]: 53.4% | viability, T/C [23]: 40.4% | viability, T/C [24]: 31.1% | viability, T/C [25]: 103% | viability, T/C [26]: 95.8% | viability, T/C [27]: 72.5% | viability, T/C [28]: 53% | viability, T/C [29]: 35.8% | viability, T/C [30]: 31.1% | viability, T/C [31]: 93.9% | viability, T/C [32]: 88.2% | viability, T/C [33]: 73% | viability, T/C [34]: 46.2% | viability, T/C [35]: 42.6% | viability, T/C [36]: 33.8%

CC1COCCN1c1cc(C2(S(C)(=N)=O)CC2)nc(-c2ccnc3[nH]ccc23)n1 (stereo unspecified) + Nc1ccc(C#CCN(C(=O)Cc2ncc(C(F)(F)F)cc2C(F)(F)F)c2ccc(F)cc2)nn1
IC50 (second compound 0.0316 µM): > 10 µM | IC50 (second compound 0.1 µM): > 10 µM | IC50 (second compound 0.316 µM): > 10 µM | IC50 (second compound 1 µM): > 10 µM | IC50 (second compound 3.16 µM): > 10 µM | IC50 (second compound 10 µM): > 10 µM | viability, T/C [1]: 100% | viability, T/C [2]: 104% | viability, T/C [3]: 108% | viability, T/C [4]: 109% | viability, T/C [5]: 97.5% | viability, T/C [6]: 86% | viability, T/C [7]: 114% | viability, T/C [8]: 110% | viability, T/C [9]: 93.9% | viability, T/C [10]: 105% | viability, T/C [11]: 108% | viability, T/C [12]: 97.2% | viability, T/C [13]: 97.7% | viability, T/C [14]: 103% | viability, T/C [15]: 110% | viability, T/C [16]: 103% | viability, T/C [17]: 108% | viability, T/C [18]: 89.2% | viability, T/C [19]: 119% | viability, T/C [20]: 109% | viability, T/C [21]: 106% | viability, T/C [22]: 106% | viability, T/C [23]: 104% | viability, T/C [24]: 85.1% | viability, T/C [25]: 101% | viability, T/C [26]: 102% | viability, T/C [27]: 102% | viability, T/C [28]: 97.5% | viability, T/C [29]: 101% | viability, T/C [30]: 83.9% | viability, T/C [31]: 109% | viability, T/C [32]: 106% | viability, T/C [33]: 115% | viability, T/C [34]: 99.5% | viability, T/C [35]: 93.4% | viability, T/C [36]: 63.6%
